Test results published in US20250223303A1, “TRICYCLIC BORONIC ACID DERIVATIVE, AND PREPARATION METHOD THEREFOR AND APPLICATION THEREOF” (priority 2021, published 2025).

Experiments:
[1] = tested on: Acinetobacter baumannii ARLG-1852 OXA-23; experiment: MIC test of compounds in combination with antibiotics, Acinetobacter baumannii ARLG-1852; conditions: for MIC of biapenem in combination with compound, Acinetobacter baumannii ARLG-1852 OXA-23: Biapenem + compound (8 μg/mL); for MIC of meropenem in combination with compound, Acinetobacter baumannii ARLG-1852 OXA-23: Meropenem + compound (8 μg/mL)
Description: (§1) 2-Fold gradient dilution of antibiotics: 300 μL of CAMHVIB medium was added to columns 2-12 of a 96-deep well plate. In column 1, 24 μL of antibiotic stock solution and 576 µL of CAMHB medium were added and mixed well, with a concentration of 512 μg/mL. 300 µL of antibiotic solution was transferred from the column 1 to the second column and mixed well. The process was repeated until column 11, and the column 12 was a blank control.
(§2) Dilution of combined compounds: the compound was diluted 400-fold to 32 μg/ml with CAMHB medium.
(§3) Working solution aliquoting: 25 μL of antibiotics was aliquoted into the 96-U bottom plate with a pipette, and 25 μL of combined compound was added to each well. If antibiotics were used alone, 25 μL of CAMHB medium was added.
(§4) Inoculum solution preparation: 5-6 single colonies were selected from the plate and suspended in normal saline. The bacterial suspension was adjusted to 0.2 (i.e., 0.5 McFarland turbidity, with a bacterial concentration was about 1 to 2×10^8 CFU/mL) with a turbidity meter. The bacterial suspension was diluted 100-fold with CAMHB medium for later use.
(§5) Inoculation: 50 μL of inoculum solution was transferred to the above 50 μL compound plate with a pipette.
(§6) Culture: The 96-U bottom plate was placed in an incubator at 37° C. for 18 to 20 h.

[2] = tested on: Klebsiella pneumoniae ATCC BAA-2470; experiment: MIC test of compounds in combination with antibiotics, Klebsiella pneumoniae ATCC BAA-2470; conditions: for MIC of biapenem in combination with compound, Klebsiella pneumoniae ATCC BAA-2470 NDM-1: Biapenem + compound (8 μg/mL); for MIC of meropenem in combination with compound, Klebsiella pneumoniae ATCC BAA-2470 NDM-1: Meropenem + compound (8 μg/mL)
Description: (§7) Strain preparation: the strains to be tested were streaked from glycerol tube at −80° C. onto Mueller Hinton II Agar plates. The plates were then placed in a 37° C. incubator and cultured for 18-24 hours.
(§8) Media preparation: CAMHB (Mueller Hinton II Broth): 22 g of powder was dissolved in 1 L of purified water and sterilized at 121° C. for 10 min for use. Saline: 8.5 g NaCl was dissolved in 1 L of pure water and sterilized at 121° C. for 30 min for use.
(§9) Preparation of compound and antibiotic stock solutions: the compound and antibiotic were dissolved in DMSO or water to 12.8 mg/mL.
as §1, §2, §3, §4, §5, §6
(§10) After the incubation, bacterial growth was visually observed, and the test plate was photographed and recorded.

[3] = tested on: Escherichia coli ARLG 2829; experiment: MIC test of compounds in combination with antibiotics, Escherichia coli ARLG 2829; conditions: for MIC of biapenem in combination with compound, Escherichia coli ARLG-2829 NDM-5, OXA-1: Biapenem + compound (8 μg/mL); for MIC of meropenem in combination with compound, Escherichia coli ARLG-2829 NDM-5, OXA-1: Meropenem + compound (8 μg/mL)
Description: as §7, §8, §9, §1, §2, §3, §4, §5, §6, §10

[4] = tested on: Acinetobacter baumannii ARLG-1853 OXA-23; experiment: MIC test of compounds in combination with antibiotics, Acinetobacter baumannii ARLG-1853; conditions: for MIC of biapenem in combination with compound, Acinetobacter baumannii ARLG-1853 OXA-23: Biapenem + compound (8 μg/mL); for MIC of meropenem in combination with compound, Acinetobacter baumannii ARLG-1853 OXA-23: Meropenem + compound (8 μg/mL)
[5] = tested on: Acinetobacter baumannii ARLG-1791 OXA-23; experiment: MIC test of compounds in combination with antibiotics, Acinetobacter baumannii ARLG-1791; conditions: for MIC of biapenem in combination with compound, Acinetobacter baumannii ARLG-1791 OXA-23: Biapenem + compound (8 μg/mL); for MIC of meropenem in combination with compound, Acinetobacter baumannii ARLG-1791 OXA-23: Meropenem + compound (8 μg/mL)
Description: as §1, §2, §3, §4, §5, §6

[6] = tested on: Acinetobacter baumannii ARLG-1809 OXA-23; experiment: MIC test of compounds in combination with antibiotics, Acinetobacter baumannii ARLG-1809; conditions: for MIC of biapenem in combination with compound, Acinetobacter baumannii ARLG-1809 OXA-23: Biapenem + compound (8 μg/mL); for MIC of meropenem in combination with compound, Acinetobacter baumannii ARLG-1809 OXA-23: Meropenem + compound (8 μg/mL)
Description: as §1, §2, §3, §4, §5, §6

[7] = tested on: Klebsiella pneumoniae ATCC BAA-1705; experiment: MIC test of compounds in combination with antibiotics, Klebsiella pneumoniae ATCC BAA-1705; conditions: for MIC of biapenem in combination with compound, Klebsiella pneumoniae ATCC BAA-1705 KPC-2: Biapenem + compound (8 μg/mL); for MIC of meropenem in combination with compound, Klebsiella pneumoniae ATCC BAA-1705 KPC-2: Meropenem + compound (8 μg/mL)
[8] = tested on: Acinetobacter baumannii WX-AB013; experiment: MIC test of compounds in combination with antibiotics, Acinetobacter baumannii WX-AB013; conditions: for MIC of biapenem in combination with compound, Acinetobacter baumannii WX-AB013: Biapenem + compound (8 μg/mL); for MIC of meropenem in combination with compound, Acinetobacter baumannii WX-AB013: Meropenem + compound (8 μg/mL)
Description: as §1, §2, §3, §4, §5, §6

[9] = tested on: Acinetobacter baumannii WX-AB005; experiment: MIC test of compounds in combination with antibiotics, Acinetobacter baumannii WX-AB005; conditions: for MIC of biapenem in combination with compound, Acinetobacter baumannii WX-AB005: Biapenem + compound (8 μg/mL); for MIC of meropenem in combination with compound, Acinetobacter baumannii WX-AB005: Meropenem + compound (8 μg/mL)
[10] = tested on: Klebsiella pneumoniae ARLG 1196; experiment: MIC test of compounds in combination with antibiotics, Klebsiella pneumoniae ARLG 1196; conditions: for MIC of biapenem in combination with compound, Klebsiella pneumoniae ARLG-1196 CTM-1 group, SHV, NDM, TEM: Biapenem + compound (8 μg/mL); for MIC of meropenem in combination with compound, Klebsiella pneumoniae ARLG-1196 CTM-1 group, SHV, NDM, TEM: Meropenem + compound (8 μg/mL)

SMILES | MIC of biapenem in combination with compound, Acinetobacter baumannii ARLG-1852 OXA-23 [1] [µg/mL] | MIC of meropenem in combination with compound, Acinetobacter baumannii ARLG-1852 OXA-23 [1] [µg/mL] | MIC of biapenem in combination with compound, Klebsiella pneumoniae ATCC BAA-2470 NDM-1 [2] [µg/mL] | MIC of meropenem in combination with compound, Klebsiella pneumoniae ATCC BAA-2470 NDM-1 [2] [µg/mL] | MIC of biapenem in combination with compound, Escherichia coli ARLG-2829 NDM-5, OXA-1 [3] [µg/mL] | MIC of meropenem in combination with compound, Escherichia coli ARLG-2829 NDM-5, OXA-1 [3] [µg/mL] | MIC of biapenem in combination with compound, Acinetobacter baumannii ARLG-1853 OXA-23 [4] [µg/mL] | MIC of meropenem in combination with compound, Acinetobacter baumannii ARLG-1853 OXA-23 [4] [µg/mL] | MIC of biapenem in combination with compound, Acinetobacter baumannii ARLG-1791 OXA-23 [5] [µg/mL] | MIC of meropenem in combination with compound, Acinetobacter baumannii ARLG-1791 OXA-23 [5] [µg/mL] | MIC of biapenem in combination with compound, Acinetobacter baumannii ARLG-1809 OXA-23 [6] [µg/mL] | MIC of meropenem in combination with compound, Acinetobacter baumannii ARLG-1809 OXA-23 [6] [µg/mL] | MIC of biapenem in combination with compound, Klebsiella pneumoniae ATCC BAA-1705 KPC-2 [7] [µg/mL] | MIC of meropenem in combination with compound, Klebsiella pneumoniae ATCC BAA-1705 KPC-2 [7] [µg/mL] | MIC of biapenem in combination with compound, Acinetobacter baumannii WX-AB013 [8] [µg/mL] | MIC of meropenem in combination with compound, Acinetobacter baumannii WX-AB013 [8] [µg/mL] | MIC of biapenem in combination with compound, Acinetobacter baumannii WX-AB005 [9] [µg/mL] | MIC of meropenem in combination with compound, Acinetobacter baumannii WX-AB005 [9] [µg/mL] | MIC of biapenem in combination with compound, Klebsiella pneumoniae ARLG-1196 CTM-1 group, SHV, NDM, TEM [10] [µg/mL] | MIC of meropenem in combination with compound, Klebsiella pneumoniae ARLG-1196 CTM-1 group, SHV, NDM, TEM [10] [µg/mL]
NC1COCC1Sc1ccc2c(c1C(=O)O)OB(O)C1CC21 (single isomer, unassigned) [Compound 10_P1] | 0.25 | 1 | ≤0.125 | ≤0.125 | ≤0.125 | 1 | 0.5 | 2 | 0.5 | 4 | 1 | 2 | ≤0.125 | ≤0.125 | 0.5 | 2 | 2 | 4 | 0.25 | 2
NC1COCC1Sc1ccc2c(c1C(=O)O)OB(O)C1CC21 (single isomer, unassigned) [Compound 10_P2] | ≤0.125 | 1 | 0.5 | 0.25 | ≤0.125 | 0.25 | ≤0.125 | 1 | 0.25 | 4 | 0.25 | 2 | ≤0.125 | ≤0.125 | 0.5 | 1 | 1 | 4 | 0.25 | 1
